According to patent US10632195B2, “Pharmaceutical device for electric-field assisted administration of Tapentadol and method of administering Tapentadol with same” (Gruenenthal GmbH, priority 2012, dated 2020):

Assays:
[1] = preliminary clinical trials: serum concentration and pain treating effect (visual analog scale); type: in vivo, human
From the text: Low serum concentrations of Tapentadol suffice to show an effect in individuals that are relatively sensitive and higher serum concentrations of Tapentadol are needed to show an effect in persons that are relatively unsensitive.

[2] = electrophoretic transdermal delivery from hydrogel formulations in device according to FIG. 1 (examples 2a, 2b, 2c; passive comparative example 2a); type: in vitro ADME, mouse; details: for total amount of Tapentadol permeated, electrophoretic delivery: after 24 hours, 60 s pulses after 1.5 and 16.5 hours
From the text: The rate of electrophoretic transdermal delivery of three different exemplary Tapentadol hydrochloride containing hydrogel formulations A, B and C has been investigated in example 2a, 2b and 2c. Further, the rate of passive transdermal delivery of a corresponding Tapentadol hydrochloride containing hydrogel formulation has been investigated in a comparative experiment 2a.
(§1) The linearity of the method was verified by calibration with an aqueous solution of Tapentadol hydrochloride.
The hydrogel formulation B has been placed in an electrophoretic transdermal delivery system according to FIG. 1. The following components were used for preparing the electrophoretic device according to FIG. 1:
silver electrodes as pair of electrodes consisting of an active electrode (1a) and a counter electrode (2a) (silver gauze, 1024 mesh/cm^2, 0.12 wire diameter, 99.9% Ag, 18 mm diameter), a foam ring (9) (Alveolit TA 1001 005 White, 95 kg/m^3, 22 mm outer diameter, 16 mm inner diameter), hydrogel formulation B as drug reservoir (3), a teflon ring as barrier material (10) (thickness 1 mm, outer diameter 16 mm, inner diameter 11 mm), silicone adhesive Bio PSA-7 4502 as adhesive layer (4a), which has been in contact with a removable protective layer prior to use (transparent PETP foil manufactured by 3M®, 74 μm, with one-side fluorination, 22 mm diameter), acrylate adhesive DuroTAK 387-2054 as a second adhesive layer (8), a PET foil as surface layer (7) (Loparex PET foil, 75 μm, 105 g/m^2, 22 mm diameter).
Two wires were soldered to the electrodes and connected to a conventional current source as electric power source (6a) (Voltakraft® laboratory power supply DIGI 35).
Transdermal delivery experiments across mouse skin have been performed after two short current pulses (2 V) have been applied for 2 s after 1.5 hour and for 2 s after 16.5 hours.
For comparison, the hydrogel formulation B or A has been placed in an electrophoretic transdermal delivery system according to FIG. 1 and passive transdermal delivery experiments to mouse skin have been performed, i.e. no electric current has been applied to these systems (passive control experiments). This experiment has been performed twice for formulation B (compB-1 and compB-2) and once in case of formulation A (compA) (comparative example 2a) as indicated in FIG. 4 and FIG. 5.
The hydrogel formulation B has been placed in an electrophoretic transdermal delivery system according to FIG. 1 comprising the same components as used for example 2a and comparative example 2a.
Transdermal delivery experiments across mouse skin have been performed after two current pulses have been applied. […]

[3] = HPLC purity of Tapentadol in exhausted hydrogel after electric-field-assisted administration (example 4); type: physicochemical
[4] = combined electrophoretic and iontophoretic transdermal delivery from hydrogel formulation C in device according to FIG. 3 (examples 3a, 3b, 3c); type: in vitro ADME, mouse
From the text: The rate of combined iontophoretic and electrophoretic transdermal delivery of aTapentadol hydrochloride containing hydrogel formulation has been investigated in examples 3a, 3b and 3c.
as §1
The hydrogel formulation C (as described in example 2a) has been placed in a combined electrophoretic and iontophoretic device according to FIG. 3. The following components were used for preparing the inventive electrophoretic and iontophoretic device according to FIG. 3:
silver electrodes as pair of electrodes consisting of an active electrode (1a) and a counter electrode (2a) (silver gauze, 1024 mesh/cm^2, 0.12 wire diameter, 99.9% Ag, 18 mm diameter and 14 mm diameter, respectively), an additional silver ring electrode as an auxiliary electrode (silver gauze, 1024 mesh/cm^2, 0.12 wire diameter, 99.9% Ag, 20 mm outer diameter and 16 mm inner diameter, respectively), a hydrogel formulation (comprising 2.5%-wt. Klucel® HF and 0.1%-wt. sodium chloride, having a pH value of 7.0) as additional reservoir (15) being in contact with the silver ring electrode, a foam ring as (9) (Alveolit TA 1001 005 White, 95 kg/m^3, 24 mm outer diameter, 20 mm inner diameter), hydrogel formulation C as drug reservoir (3), teflon ring as barrier material (10) (thickness 1 mm, outer diameter 16 mm, inner diameter 11 mm and, thickness 0.5 mm, outer diameter 20 mm, inner diameter 16 mm, respectively), silicone adhesive Bio PSA-7 4502 as adhesive layer (4a), which has been in contact with a removable protective layer prior to use (transparent PETP foil manufactured by 3M®, 74 μm, with one-side fluorination, 24 mm diameter), acrylate adhesive DuroTAK 387-2054 as a second adhesive layer (8), a PET foil as surface layer (7) (Loparex PET foil, 75 μm, 105 g/m^2, 24 mm diameter).
Three wires were soldered to the electrodes and connected to a conventional current source as electric power source (6a) (Voltakraft® laboratory power supply DIGI 35).
A transdermal delivery experiment across mouse skin has been performed. In the first electrophoretic phase, only the silver electrodes as pair of electrodes consisting of an active electrode (1a) and a counter electrode (2a) were connected to the current supply. After application of 2.5 hours a single pulse having a pulse length of 60 s at a constant voltage of 3 V has been applied. After application of said pulse both electrodes were disconnected from the voltage generator. In the second iontophoretic phase following the electrophoretic phase, the counter electrode (2a) of the electrophoretically used pair of silver electrodes (1a and 2a) is used as an active electrode (1b) and the additional silver ring electrode is used a counter electrode (2b). A single pulse having a pulse length of 60 s at a constant voltage of 3 V has been applied in the iontophoretic phase.
The hydrogel formulation C (as described in example 2a) has been placed in a combined electrophoretic and iontophoretic device according to FIG. 3. The same components were used for preparing the inventive combined electrophoretic and iontophoretic device as described in example 3a.
Three transdermal delivery experiments (E-1, E2 and E3 as example 3b) to mouse skin have been performed in order to directly assess differences between a solely electrophoretic transdermal delivery and a combined electrophoretic and iontophoretic transdermal delivery as indicated in FIG. 13 and FIG. 14: […]

[5] = exhausted hydrogel of F-3 of example 3c, HPLC

CC[C@@H](c1cccc(O)c1)[C@@H](C)CN(C)C [Tapentadol, (−)-(1R,2R)-3-(3-dimethyl-amino-1-ethyl-2-methyl-propyl)-phenol]
visual analog scale (VAS) in a population mean ([1]; at serum concentration of about 5 ng·ml-1): approximately −2 mm | visual analog scale (VAS) in a population mean ([1]; at serum concentration of about 300 ng·ml-1): approximately −15 mm | total amount of Tapentadol permeated, electrophoretic delivery ([2]; B-5: formulation B, 2 V): more than 300 μg/cm^2 | total amount of Tapentadol permeated, electrophoretic delivery ([2]; C-3: formulation C, 5 V): 670 μg/cm^2 | increase of cumulative skin permeation by electrophoresis versus passive delivery ([2]; hydrogel formulation B, example 2a (2 V pulses of 2 s after 1.5 and 16.5 hours) vs comparative example 2a, from FIG. 4): 5-10 fold | Tapentadol remaining within the transdermal delivery system ([2]; over 24 hours of administration, examples 2a, 2b and 2c): about 90 wt.-% | electrically induced degradation of Tapentadol ([3]; during electric-field administration of the device): does not induce a significant degradation | Tapentadol content [3, 5]: 95.3% | sum of impurities [3, 5]: 4.7% | fall-off of the drug flux ([4]; E-2, after 18 hours compared to the maximum at about 6 hours): about 50% | total amount of Tapentadol permeated, combined electrophoretic and iontophoretic delivery ([4]; after 24 hours, D-1: formulation C, 60 s 3 V electrophoretic pulse after 2.5 hours then 60 s 3 V iontophoretic pulse, mouse skin probably injured): 430 μg/cm^2 | total amount of Tapentadol permeated, electrophoretic delivery ([4]; after 24 hours, E-2: formulation C, four 60 s 3 V electrophoretic pulses (0, 15.75, 18, 20.75 h)): more than 700 μg/cm^2 | total amount of Tapentadol permeated, combined electrophoretic and iontophoretic delivery ([4]; after 24 hours, E-3: formulation C, four 60 s 3 V electrophoretic pulses (0, 15.75, 18, 20.75 h) each followed by 9 V iontophoretic pulse): more than 800 μg/cm^2 | total amount of Tapentadol permeated, combined electrophoretic and iontophoretic delivery ([4]; after 24 hours, F-3: formulation C, four 60 s 4 V electrophoretic pulses (0, 2.5, 5.5, 21.5 h) each followed by 9 V iontophoretic pulse): about 1500 μg/cm^2
